Data set [1] relates to Vero 76 cells.
In data set [2] the test system is SARS-CoV-2. In kind it is cell-based. Particulars: for Virus CCID50 per well ± SD: 22±2°C, average of 3 replicates; for LRV (log reduction value): compared to the virus control.
Data set [3] has as its system influenza virus. Particulars: cited from earlier work.
Data set [4] has as its system SARS-CoV-2. The settings on record: cited from earlier work.

Where two headings read alike, the source gives them in different places. Marks after values point to notes of the source that are not given here. Bounds are passed on as bounds.

Take `CCO` [EtOH (63%), Ethanol]: the cytotoxicity in culture entry in data set [1] is reported as “cytotoxic”. Also, in data set [2] (contact time 2 minutes), the “Virus CCID50 per well ± SD” value is reported as <1.7**** log CCID50 per 0.1 mL and the “LRV (log reduction value)” value was over 2.2 log10. In addition, in data set [2] (contact time 10 minutes), the “Virus CCID50 per well ± SD” value is <1.7**** log CCID50 per 0.1 mL and the “LRV (log reduction value)” value is over 2.2 log10.

Take `CCOC(=O)C1=C[C@@H](OC(CC)CC)[C@H](NC(C)=O)[C@@H](N)C1` [Oseltamivir]: the “influenza RNA concentration decrease” value in data set [3] (on day 2) was −1.19 log10 copies/mL; in data set [3] (on day 4) it was −0.68 log10 copies/mL.

Regarding “LY-CoV555: SARS-CoV-2 neutralizing antibody”, the “relative SARS-CoV-2 RNA decrease versus placebo” value in data set [4] (day 3) was −0.64 log10 copies/mL; in data set [4] (day 7), −0.45 log10 copies/mL.

The record behind these values is patent US20240165151A1, “COMPOSITIONS AND METHODS FOR TREATING UPPER RESPIRATORY INFECTIONS” (priority 2020, published 2024).
